Test results published in PMC11432330, “Novel Drug-like HsrA Inhibitors Exhibit Potent Narrow-Spectrum Antimicrobial Activities against Helicobacter pylori” (International Journal of Molecular Sciences, 2024).

System: H. pylori 26695
Test: In vivo inhibition of HsrA: RNA-Seq transcriptomic analysis of exposed cells
Type: cell-based, Helicobacter pylori
Details: for log2 Fold Change: exposed to lethal concentrations vs control
Protocol: Bacterial growth from three blood agar plates of H. pylori ATCC 700392 (aka 26695) incubated for 48 h at 37 °C under microaerobic conditions was aseptically resuspended in BHI + FBS and adjusted to 10^7 CFU/mL. BHI broth cultures were incubated microaerobically at 37 °C for 24 h. […] At this time, bacterial growth was stopped by adding 1.5 mL ice-cold RNA stop solution (95% absolute ethanol, 5% acid-buffered phenol) and subsequently incubated on ice. Control samples were exposed to the same amount of DMSO instead of the inhibitor. Helicobacter cells from all samples were harvested by centrifugation (4000 rpm at 4 °C for 10 min), then the pellets were quickly frozen by immersion in liquid nitrogen and stored at −80 °C.
RNA-Seq analysis was performed by GENEWIZ (Azenta Life Sciences, Leipzig, Germany). Frozen cell pellets from two biological replicates of each treatment condition were properly submitted to GENEWIZ in dry ice. RNA-Seq libraries were prepared according to standard protocols via rRNA depletion, RNA fragmentation and random priming, reverse transcription, 5’-phosphorylation and dA-tailing of cDNAs, adaptor ligation, and PCR enrichment. Once the quality of each library was confirmed, they were sequenced on an Illumina NovaSeq 6000 (Illumina, San Diego, CA, USA) with 150-bp paired-ends. Raw sequence reads were filtered to remove possible adapter sequences and nucleotides with poor quality using Trimmomatic v.0.36 [105]. The trimmed reads were subsequently mapped to the H. pylori strain 26695 reference genome NC_000915.1 available on NCBI, by using the Bowtie2 aligner v.2.2.6 [106]. Unique gene hit counts were calculated by using featureCounts from the Subread package v.1.5.2. Only unique reads that fell within the gene regions were counted. Using DESeq2 [108], a comparison of the gene expression between the control and treated groups of samples was performed. The Wald test was used to generate p-values and log2 fold changes. Genes with an adjusted p-value < 0.05 and absolute log2 fold change >1 were considered as differentially expressed genes (DEGs) for each comparison. The RNA-Seq data generated in this study have been deposited in ArrayExpress with the accession number E-MTAB-14255.

NC(=NOC(=O)Nc1ccc(Cl)cc1)c1csc([N+](=O)[O-])c1 [Ligand V, N′-{[(4-chloroanilino)carbonyl]}oxy-5-nitrothiophene-3-carboximidamide]
log2 Fold Change (gene HP1464): -0.584
log2 Fold Change (gene HP1467): 1.322
log2 Fold Change HP1469 (gene HP1469, lethal concentrations of V vs control): 0.362
log2 Fold Change (gene HP1470): 1.312
log2 Fold Change HP1473 (gene HP1473, lethal concentrations of V vs control): 0.275
log2 Fold Change (gene HP1481): -0.602
log2 Fold Change HP1492 (gene HP1492, lethal concentrations of V vs control): 0.282
log2 Fold Change HP1499 (gene HP1499, lethal concentrations of V vs control): 0.340
log2 Fold Change HP1501 (gene HP1501, lethal concentrations of V vs control): 0.305
log2 Fold Change (gene HP1504): 1.311
log2 Fold Change HP1505 (gene HP1505, lethal concentrations of V vs control): 0.278
log2 Fold Change HP1512 (gene HP1512, lethal concentrations of V vs control): 0.234
log2 Fold Change (gene HP1513): -0.489
log2 Fold Change HP1521 (gene HP1521, lethal concentrations of V vs control): 0.260
log2 Fold Change (gene HP1537): -0.495
log2 Fold Change HP1539 (gene HP1539, lethal concentrations of V vs control): 0.288
log2 Fold Change (gene HP1556): -0.480
log2 Fold Change HP1562 (gene HP1562, lethal concentrations of V vs control): 0.282
log2 Fold Change (gene HP1572): -0.532
log2 Fold Change (gene HP1573): -0.478
log2 Fold Change (gene HPrrnA16S): 2.639
log2 Fold Change (gene acpS): -0.554
log2 Fold Change adk (gene adk, lethal concentrations of V vs control): 0.370
log2 Fold Change aroB (gene aroB, lethal concentrations of V vs control): 0.331
log2 Fold Change ddl (gene ddl, lethal concentrations of V vs control): 0.165
log2 Fold Change dnaA (gene dnaA, lethal concentrations of V vs control): 0.315
log2 Fold Change dnaG (gene dnaG, lethal concentrations of V vs control): 0.180
log2 Fold Change dut (gene dut, lethal concentrations of V vs control): 0.253
log2 Fold Change fbcH (gene fbcH, lethal concentrations of V vs control): 0.402
log2 Fold Change flgD (gene flgD, lethal concentrations of V vs control): 0.479
log2 Fold Change flgH (gene flgH, lethal concentrations of V vs control): 0.237
log2 Fold Change flhF (gene flhF, lethal concentrations of V vs control): 0.252
log2 Fold Change (gene fliQ): -0.518
log2 Fold Change fliR (gene fliR, lethal concentrations of V vs control): 0.363
log2 Fold Change folE (gene folE, lethal concentrations of V vs control): 0.244
log2 Fold Change fusA (gene fusA, lethal concentrations of V vs control): 0.268
log2 Fold Change (gene gcp): -0.507
log2 Fold Change glmM (gene glmM, lethal concentrations of V vs control): 0.344
log2 Fold Change (gene gltX): -0.588
log2 Fold Change gmk (gene gmk, lethal concentrations of V vs control): 0.172
log2 Fold Change groES (gene groES, lethal concentrations of V vs control): 0.428
log2 Fold Change guaA (gene guaA, lethal concentrations of V vs control): 0.370
log2 Fold Change gyrB (gene gyrB, lethal concentrations of V vs control): 0.200
log2 Fold Change (gene hemC): -0.538
log2 Fold Change hypA (gene hypA, lethal concentrations of V vs control): 0.375
log2 Fold Change infB (gene infB, lethal concentrations of V vs control): 0.319
log2 Fold Change ksgA (gene ksgA, lethal concentrations of V vs control): 0.343
log2 Fold Change (gene lpxB): -0.543
log2 Fold Change lpxK (gene lpxK, lethal concentrations of V vs control): 0.332
log2 Fold Change mnmA (gene mnmA, lethal concentrations of V vs control): 0.256
log2 Fold Change motB (gene motB, lethal concentrations of V vs control): 0.465
log2 Fold Change mraY (gene mraY, lethal concentrations of V vs control): 0.155
log2 Fold Change nusB (gene nusB, lethal concentrations of V vs control): 0.152
log2 Fold Change oorC (gene oorC, lethal concentrations of V vs control): 0.231
log2 Fold Change (gene panC): 1.338
log2 Fold Change (gene pheT): -0.561
log2 Fold Change porA (gene porA, lethal concentrations of V vs control): 0.146
log2 Fold Change prfB (gene prfB, lethal concentrations of V vs control): 0.329
log2 Fold Change pyrH (gene pyrH, lethal concentrations of V vs control): 0.243
log2 Fold Change recA (gene recA, lethal concentrations of V vs control): 0.430
log2 Fold Change (gene rnc): -0.477
log2 Fold Change (gene rplQ): -0.590
log2 Fold Change (gene rplW): -0.487
log2 Fold Change (gene rplX): -0.561
log2 Fold Change rpsB (gene rpsB, lethal concentrations of V vs control): 0.177
log2 Fold Change (gene rpsI): -0.579
log2 Fold Change ruvA (gene ruvA, lethal concentrations of V vs control): 0.457
log2 Fold Change ruvB (gene ruvB, lethal concentrations of V vs control): 0.388
log2 Fold Change secD (gene secD, lethal concentrations of V vs control): 0.450
log2 Fold Change (gene tRNA-Arg-4): -0.569
log2 Fold Change (gene tRNA-Gln-1): 1.327
log2 Fold Change tRNA-Ser-1 (gene tRNA-Ser-1, lethal concentrations of V vs control): 0.297
log2 Fold Change (gene tRNA-Ser-2): 1.370
log2 Fold Change tRNA-Ser-3 (gene tRNA-Ser-3, lethal concentrations of V vs control): 0.425
log2 Fold Change (gene tRNA-Trp-1): -0.513
log2 Fold Change (gene tgt): -0.523
log2 Fold Change trpD (gene trpD, lethal concentrations of V vs control): 0.327
log2 Fold Change tsf (gene tsf, lethal concentrations of V vs control): 0.474
log2 Fold Change uvrA (gene uvrA, lethal concentrations of V vs control): 0.417
log2 Fold Change (gene xseA): -0.471
log2 Fold Change yajC (gene yajC, lethal concentrations of V vs control): 0.146
